Measurements: patent publication US20080021056A1, “Fused, Tricyclic Sulfonamide Inhibitors of Gamma Secretase” (priority 2006, published 2008)

Legend:
[1] = target: T1, gamma-secretase (Homo sapiens, UniProt P49768); assay: Gamma-secretase APP enzyme assay; assay type: biochemical; conditions: cleavage of MBP-C125 Swe substrate at the Aβ40 site; partially purified extract of IMR-32 cell membranes; ELISA
T1 construct: partially purified extract of IMR-32 cell membranes as the gamma-secretase enzyme preparation; endogenous in cells; host or cells: IMR-32 cell membranes (partially purified extract)
How it was run: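 IMR-32 membrane extract (25 Units) was preincubated with inhibitor for 30 min at 37 °C, then MBP-C125swe substrate (0.05 mg/ml) was added for 2 h at 37 °C in Hepes/NaCl with BigCHAPS and brain lipid (0.53 mg/ml). Reaction stopped with 0.1% SDS. Aβ40 neo-epitope product captured overnight at 4 °C and quantified by sandwich ELISA against a six-point standard curve.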

[2] = target: T2, gamma secretase (Mus musculus, UniProt P49769); conditions: PDAPP mice, acute inhibition, in-vivo; cited from earlier work
T2 construct: host or cells: brain of PDAPP transgenic mice (in vivo)

| Structure (SMILES) | IC50 [1] [nM] | Aβ in the brain [2] |
| --- | --- | --- |
| CC[C@@H]1c2cn[nH]c2-c2cc(F)c(F)cc2N1S(=O)(=O)c1ccc(C(F)(F)F)cc1 [(R)-4-ethyl-7,8-difluoro-5-(4-(trifluoromethyl)phenylsulfonyl)-4,5-dihydro-1H-pyrazolo[4,3-c]quinoline] | 0.1 to 100 | – |
| C[C@H](NC(=O)Cc1cc(F)cc(F)c1)C(=O)N[C@H](C(=O)OC(C)(C)C)c1ccccc1 [DAPT] | – | reduction of Aβ in the brain |
